Test results published in patent US9115177B2, “Preparation method of micafungin sodium” (Shanghai Techwell Biopharmaceutical Co., Ltd., priority 2011, dated 2015).
Like-named read-outs stand apart in the source and are kept apart here. Marks after values point to notes of the source that are not given here. Numbered stars: 1 amine (or outer) side, 2 acyl side, 3 side chain; on linkers, the order of the positions; unused ones are H or OH. Bridge positions count the residues as written; N and C are the ends. Square brackets hold non-standard residues; d marks the D form. Peptide text beside a SMILES is read from it. * marks the point of attachment. hTyr(3S-OH,4S-OH,3'-OSO3H) = N[C@H](C(=O)O)[C@H](O)[C@@H](O)c1ccc(O)c(OS(=O)(=O)O)c1; Orn(4R-OH,5R-OH) = O=C([C@H](C[C@@H](O)[C@@H](O)N[*:3])N[*:1])[*:2]; Pro(3S-OH,4S-Me) = C[C@H]1CN[C@H](C(=O)O)[C@H]1O; X1 = CCCCCOc1ccc(-c2cc(-c3ccc(C(=O)*)cc3)no2)cc1; Gln(3R-OH) = NC(=O)C[C@@H](O)[C@H](N)C(=O)O; Hyp = O=C(O)[C@@H]1C[C@@H](O)CN1

Legend:
[1] = conjugate acid of weak base; cited from earlier work
[2] = pKa values of compounds of benzene sulfonic acid; assay type: physicochemical
Procedure: Generally, there are two ways for preparing acid into sodium salt. One is exchange using cationic resin; the other is via adjusting pH value. Virtually, preparing sodium salt by adjusting pH value is a process of neutralization reaction between acid and base. It includes two types of reactions, i.e. the reaction between strong acid and strong base, and the reaction between […]. If strong base solution is added into strong acid solution for adjusting pH value, there is a sharp change in the pH value of the solution (the change of pH value is illustrated in FIG. 6), and the pH value will be instantly altered by 8. Therefore in the practical production, it is hard to control the pH value and a slightest mistake could lead to an overregulated pH value. In WO2004014879, a 0.1 mol/L NaOH solution was used to adjust pH value to 6-8 for obtaining formula II compound. It was actually a reaction between strong acid and strong base. […] Therefore, theoretically, the method using NaOH solution to adjust pH values for obtaining sodium salt is unsuitable for preparation of formula II compound.

[3] = pH adjustment of formula I compound with 0.1 mol/L NaOH solution, HPLC; assay type: physicochemical; settings: pH adjusted with 0.1 mol/L NaOH solution added dropwise
Procedure: The inventors have repeated the method reported in WO2004014879 for multiple times and analyzed and validated the reported method from the point of view of local pH value.
The method for measuring HPLC purity of Formula I compound is shown as follows.
HPLC analytical column: YMC-ODS 250×4.6 mm, 5 μm
Mobile phase: acetonitrile: phosphate buffer (pH 3.0)=[…]
Column temperature: 35±5° C.
Dilution: phosphate buffer in water
Wave length detected: 210 nm
Volume of sample injection: 10 μl
Retention time of the main peak: approx. 18 min.
According to the purification process for micafungin in WO2004014879, ion exchange was applied to 0.5 g of compound of formula I by using 50 ml of cation exchange resin UBK510L. The product was sampled and analyzed. HPLC purity was determined as 99.54%. […] The product was sampled and analyzed. HPLC purity was determined as 98.01% (See FIG. 2). […] The produce was sampled and analyzed. HPLC purity was determined as 97.90%. […] The product was sampled and analyzed. HPLC purity was determined as 97.81%. […] The product was sampled and analyzed. HPLC purity was determined as 97.75%. […] The product was sampled and analyzed. HPLC purity was determined as 97.67%. […] The product was sampled and analyzed. HPLC purity was determined as 97.59%. […] The product was sampled and analyzed.

Which pKa1 [1] does the source give for `OB(O)O` [boric acid] here?
Its pKa1 is 9.24.

What about the pKa2 [1] of the same molecule?
The pKa2 was 12.74^a.

And the pKa3 [1]?
The pKa3 was 13.80^a.

With `O=S(O)O` [sulfurous acid] as the molecule, how does the pKa1 [1] read?
Its pKa1 is 1.90^a.

And the pKa2 [1]?
The pKa2 was 7.20.

Which results are given for `O=C(O)CC(O)C(=O)O` (centres unmarked) [malic acid]?
pKa1 [1]: 3.40^a; pKa2 [1]: 5.13

With `S` [hydrosulfuric acid] as the molecule, how does the pKa1 [1] read?
The pKa1 was 6.88.

What about the pKa2 [1] of the same molecule?
Its pKa2 is 14.15^a.

For `C/C=C/C=C/C(=O)O` [sorbic acid], which pKa1 [1] is on record?
The pKa1 was 4.76.

With `CCCCCOc1ccc(-c2cc(-c3ccc(C(=O)N[C@H]4C[C@@H](O)[C@@H](O)NC(=O)[C@@H]5[C@@H](O)[C@@H](C)CN5C(=O)[C@H]([C@H](O)CC(N)=O)NC(=O)[C@H]([C@H](O)[C@@H](O)c5ccc(O)c(OS(=O)(=O)O)c5)NC(=O)[C@@H]5C[C@@H](O)CN5C(=O)[C@H]([C@@H](C)O)NC4=O)cc3)no2)cc1` [micafungin, Micafungin] (X1-[Orn(4R-OH,5R-OH)]T[Hyp][hTyr(3S-OH,4S-OH,3'-OSO3H)][Gln(3R-OH)][Pro(3S-OH,4S-Me)]; lactam 1-C) as the molecule, how does the pKa [2] read?
Its pKa is less than 1.

What about the “degradation after pH adjustment (HPLC)” value [3] of the same molecule?
Its value is “obvious degradation”.

What about the stability in solution (pH 4.0-6.0) of the same molecule?
The stability in solution was “more stable”.

What about the stability in solution (pH 4.0-7.0) of the same molecule?
Its stability in solution is “stability is good”.

And the stability in solution (pH 4.5-5.5)?
The stability in solution was “most stable”.

What about the stability in solution (pH of solution adjusted to 7) of the same molecule?
Its stability in solution is “no obvious degradation”.

What about the stability in solution (solution with high pH value) of the same molecule?
The stability in solution was “poor stability”.
